Reference: patent US6706734B2, “Arylpiperidinol and arylpiperidine derivatives and pharmaceuticals containing the same” (Daiichi Suntory Pharma Co., Ltd., priority 1996, dated 2004)

Assays:
[1] = test system: Sodium channel; assay: Inhibitory effect of veratrizine-induced sodium channel activity (synaptosome membrane potential, Rhodamine 6G); format: biochemical, Wistar rats; conditions: compound 0.1 μM, rat brain synaptozomes, veratridine-induced depolarization
Description: Inhibitory Effect of Veratrizine-induced Sodium Channel Activity
The membrane potential of the synaptozomes prepared from the brain membrane of Wistar rats (male, 10 to 12 weeks old) was measured by the method of Aiuchi et al. (t. Aiuchi et al: Biochimi. Biophys. Acta. 771, 228 (1984)) using a membrane potential sensitive fluorescent dye Rhodamine 6G to evaluate the effects of suppression of the compound on the veratrizine-inducing depolarization response.

[2] = test system: DBA/2N type mice; assay: Audiogenic seizure suppressing effect; format: in vivo; conditions: compound 10 mg/kg, i.p., audio stimulus after 20 minutes, suppression of average seizure score; for inhibition in vivo at 10 mg/kg: Mus musculus, ip, 20 min, read-out: Antiseizure effect (suppression rate %)
Description: Audiogenic Seizure Suppressing Effect
The audiogenic seizure suppressing effect of the compounds was evaluated by the method of Sarro et al. [G. B. De Sarro et al., Br. J. Pharmacol., 93, 247 (1988)]. That is, the compound dissolved in 10% 2-hydroxypropyl-β-cyclodextrin was administered intraperitoneally to DBA/2N type mice (male, 3 weeks old). After 20 minutes, a supersonic washer was used to apply audio stimulus of at least 90 dB for one minute. The wild running (WR), clonic seizures (clonus), tonic seizures (tonus), and respiratory arrest (RA) were observed.

[3] = test system: T-type Ca^2+ channel; assay: T-type calcium channel inhibitory effect (whole-cell patch clamp, hippocampal CA1 pyramidal cells); conditions: read-out: T-type Ca^2+ channel inhibitory effect IC50; suppression of peak current after one minute of application; rat hippocampal CA1 pyramidal cells
Description: T-Type Calcium Channel Inhibitory Effect
The hippocampal CA1 pyramidal cells were isolated from Wistar rats (female, 1 week old) according to the method reported by Takahashi et al. [K. Takahashi et al.; J. Pharmacol. Exp. Ther., 256, 169 (1991)] and the T-type calcium current under conditions of a fixed membrane potential was measured using the whole-cell configration of the patch clamp technique. The effects of the compounds were evaluated from the rate of suppression of the peak current after one minute of application using the concentration clamp method.

O=C(CN1CCC(O)(c2ccc(Cc3ccc(F)cc3)cc2)CC1)N[C@@H]1C[C@H]1c1ccccc1 (relative stereo) [Compound 54, N-(trans-2-phenyl-1-cyclopropyl)-4-[4-(4-fluorophenyl)methylphenyl]-4-hydroxy-1-piperidinacetamide]
Anti-veratridine effect (inhibiting rate %) [1]: 20.4% | inhibition in vivo at 10 mg/kg [2]: 58%

Fc1cc(C2CCN(C/C=C/c3ccccc3)CC2)ccc1-c1ccccc1 [Compound 18, (E)-4-(3-fluoro-4-phenyl)phenyl-1-(3-phenyl-2-propenyl)piperidine]
Anti-veratridine effect (inhibiting rate %) [1]: 13.1% | inhibition in vivo at 10 mg/kg [2]: 62%

O=C(CN1CCC(c2ccc(-c3ccccc3)c(F)c2)CC1)c1ccccc1 [Compound 19, 4-(3-fluoro-4-phenyl)phenyl-1-(2-phenyl-2-oxoethyl)piperidine]
Anti-veratridine effect (inhibiting rate %) [1]: 12.9% | inhibition in vivo at 10 mg/kg [2]: 52%

O=C(CN1CCC(O)(c2ccc(-c3ccccc3)c(F)c2)CC1)c1ccccc1 [Compound 20, 4-(3-fluoro-4-phenyl)phenyl-1-(2-phenyl-2-oxoethyl)-4-piperidinol]
Anti-veratridine effect (inhibiting rate %) [1]: 20.2% | inhibition in vivo at 10 mg/kg [2]: 91.3% | IC50 [3]: 3000 nM

COc1ccc(C(=O)CN2CCC(O)(c3ccc(-c4ccccc4)c(F)c3)CC2)cc1 [Compound 21, 4-(3-fluoro-4-phenyl)phenyl-1-[2-(4-methoxyphenyl)-2-oxoethyl]-4-piperidinol]
Anti-veratridine effect (inhibiting rate %) [1]: 18.6% | inhibition in vivo at 10 mg/kg [2]: 91.3%

C(=C\c1ccccc1)/CN1CCC(c2ccc(-c3ccccc3)cc2)CC1 [Compound 22, (E)-4-(4-phenyl)phenyl-1-(3-phenyl-2-propenyl)piperidine]
inhibition in vivo at 10 mg/kg [2]: 72%

O=C(CN1CCC(c2ccc(-c3ccccc3)cc2)CC1)c1ccccc1 [Compound 23, 4-(4-phenyl)phenyl-1-(2-phenyl-2-oxoethyl)piperidine]
Anti-veratridine effect (inhibiting rate %) [1]: 11.3% | inhibition in vivo at 10 mg/kg [2]: 84%

OC(COc1ccccc1)CN1CCC(O)(c2ccc(-c3ccccc3)c(F)c2)CC1 (stereo not shown) [Compound 24, 4-(3-fluoro-4-phenyl)phenyl-1-(2-hydroxy-3-phenoxy)propyl-4-piperidinol]
Anti-veratridine effect (inhibiting rate %) [1]: 23.8% | inhibition in vivo at 10 mg/kg [2]: 74%

Fc1cc(C2CCN(CC3CC3c3ccccc3)CC2)ccc1-c1ccccc1 (stereo not drawn) [Compound 25, 4-(3-fluoro-4-phenyl)phenyl-1-(trans-2-phenyl-1-cyclopropylmethyl)piperidine]
Anti-veratridine effect (inhibiting rate %) [1]: 57% | inhibition in vivo at 10 mg/kg [2]: 54%

OC1(c2ccc(-c3ccccc3)c(F)c2)CCN(CC2(c3ccccc3)CC2)CC1 [Compound 26, 4-(3-fluoro-4-phenyl)phenyl-1-(1-phenyl-1-cyclopropane)methyl-1-piperidinol]
Anti-veratridine effect (inhibiting rate %) [1]: 30%

c1ccc(-c2ccc(C3CCN(CC4CC4c4ccccc4)CC3)cc2)cc1 (stereo not drawn) [Compound 27, 4-(4-phenyl)phenyl-1-(trans-2-phenyl-1-cyclopropylmethyl)piperidine]
Anti-veratridine effect (inhibiting rate %) [1]: 41% | inhibition in vivo at 10 mg/kg [2]: 52%

c1ccc(-c2ccc(C3CCN(CC4(c5ccccc5)CC4)CC3)cc2)cc1 [Compound 28, 4-(4-phenyl)phenyl-1-(1-phenyl-1-cyclopropane)methylpiperidine]
Anti-veratridine effect (inhibiting rate %) [1]: 24% | inhibition in vivo at 10 mg/kg [2]: 56%

OC(COc1ccccc1)CN1CCC(c2ccc(-c3ccccc3)cc2)CC1 (stereo not shown) [Compound 29, 4-(4-phenyl)phenyl-1-(2-hydroxy-3-phenoxy)propylpiperidine]
Anti-veratridine effect (inhibiting rate %) [1]: 40% | inhibition in vivo at 10 mg/kg [2]: 68%

O=C(CN1CCC(c2ccc(-c3ccccc3)c(F)c2)CC1)NC1CC1c1ccccc1 (stereo not drawn) [Compound 31, N-(trans-2-phenyl-1-cyclopropyl)-4-(3-fluoro-4-phenyl)phenyl-1-piperidinacetamide]
Anti-veratridine effect (inhibiting rate %) [1]: 14%

OC1(c2ccc(-c3ccccc3)c(F)c2)CCN(CC2CC2c2ccccc2)CC1 (stereo not shown) [Compound 32]
Anti-veratridine effect (inhibiting rate %) [1]: 27.3%

OC1(c2ccc(-c3ccccc3)cc2)CCN(C/C=C/c2ccccc2)CC1 [Compound 33, (E)-4-(4-phenyl)phenyl-1-(3-phenyl-2-propenyl)-4-piperidinol]
Anti-veratridine effect (inhibiting rate %) [1]: 12.8%

O=C(CN1CCC(O)(c2ccc(Oc3ccccc3)cc2)CC1)c1ccccc1 [Compound 35, 4-(4-phenoxy)phenyl-1-(2-phenyl-2-oxoethyl)-4-piperidinol]
Anti-veratridine effect (inhibiting rate %) [1]: 27.7% | inhibition in vivo at 10 mg/kg [2]: 98%

OC(COc1ccccc1)CN1CCC(O)(c2ccc(Oc3ccccc3)cc2)CC1 (stereo not shown) [Compound 36, 4-(4-phenoxy)phenyl-1-(2-hydroxy-3-phenoxy)propyl-4-piperidinol]
Anti-veratridine effect (inhibiting rate %) ([1]; 0.1 µM): 28.6% | inhibition in vivo at 10 mg/kg [2]: 68%

OC1(c2ccc(Cc3ccc(F)cc3)cc2)CCN(C/C=C/c2ccccc2)CC1 [Compound 37, (E)-4-[4-(4-fluorophenyl)methylphenyl]-1-1-(3-phenyl-2-propenyl)-4-piperidinol]
Anti-veratridine effect (inhibiting rate %) [1]: 39.7% | inhibition in vivo at 10 mg/kg [2]: 88%

O=C(CN1CCC(O)(c2ccc(Cc3ccc(F)cc3)cc2)CC1)c1ccccc1 [Compound 38, 4-[4-(4-fluorophenyl)methylphenyl]-1-(2-phenyl-2-oxoethyl)-4-piperidinol]
Anti-veratridine effect (inhibiting rate %) [1]: 18% | inhibition in vivo at 10 mg/kg [2]: 82%

O=C(CN1CCC(O)(c2ccc(-c3ccccc3)cc2)CC1)c1ccccc1 [Compound 40, 1-(2-phenyl-2-oxoethyl)-4-(4-phenyl)phenyl-4-piperidinol]
Anti-veratridine effect (inhibiting rate %) [1]: 23% | inhibition in vivo at 10 mg/kg [2]: 84%

OC(COc1ccccc1)CN1CCC(O)(c2ccc(-c3ccccc3)cc2)CC1 (stereo not shown) [Compound 41, 1-(2-hydroxy-3-phenoxy)propyl-4-(4-phenyl)phenyl-4-piperidinol]
Anti-veratridine effect (inhibiting rate %) [1]: 23.7% | inhibition in vivo at 10 mg/kg [2]: 92%

OC(CN1CCC(O)(c2ccc(-c3ccccc3)cc2)CC1)c1ccccc1 (stereo not shown) [Compound 44, 1-(2-hydroxy-2-phenyl)ethyl-4-(4-phenyl)phenyl-4-piperidinol]
inhibition in vivo at 10 mg/kg [2]: 68%

O[C@H](COc1ccccc1)CN1CCC(O)(c2ccc(Oc3ccccc3)cc2)CC1 [Compound 45, (S)-4-(4-phenoxy)phenyl-1-(2-hydroxy-3-phenoxy)propyl-4-piperidinol]
Anti-veratridine effect (inhibiting rate %) ([1]; 0.1 µM): 19.8% | Antiseizure effect (suppression rate %) ([2]; 10 mg/kg): 82%

O[C@@H](COc1ccccc1)CN1CCC(O)(c2ccc(Oc3ccccc3)cc2)CC1 [Compound 46, (R)-4-(4-phenoxy)phenyl-1-(2-hydroxy-3-phenoxy)propyl-4-piperidinol]
Anti-veratridine effect (inhibiting rate %) [1]: 19.8% | Antiseizure effect (suppression rate %) [2]: 82%

O[C@H](COc1ccccc1)CN1CCC(O)(c2ccc(Cc3ccc(F)cc3)cc2)CC1 [Compound 47, (S)-4-[4-(4-fluorophenyl)methylphenyl]-1-(2-hydroxy-3-phenoxy)propyl-4-piperidinol]
Anti-veratridine effect (inhibiting rate %) ([1]; 0.1 µM): 39.5% | Antiseizure effect (suppression rate %) ([2]; 10 mg/kg): 78%

O[C@@H](COc1ccccc1)CN1CCC(O)(c2ccc(Cc3ccc(F)cc3)cc2)CC1 [Compound 48, (R)-4-[4-(4-fluorophenyl)methylphenyl]-1-(2-hydroxy-3-phenoxy)propyl-4-piperidinol]
Anti-veratridine effect (inhibiting rate %) [1]: 22.7% | inhibition in vivo at 10 mg/kg [2]: 82%

OC1(c2ccc(Oc3ccccc3)cc2)CCN(CC2(c3ccccc3)CC2)CC1 [Compound 49, 4-(4-phenoxy)phenyl-1-(1-phenyl-1-cyclopropane)methyl-4-piperidinol]
Anti-veratridine effect (inhibiting rate %) [1]: 18.9% | inhibition in vivo at 10 mg/kg [2]: 50%

OC1(c2ccc(Oc3ccccc3)cc2)CCN(CC2CC2c2ccccc2)CC1 (stereo not drawn) [Compound 50, 4-(4-phenoxy)phenyl-1-(trans-2-phenyl-1-cyclopropylmethyl)-4-piperidinol]
Anti-veratridine effect (inhibiting rate %) [1]: 33.4% | inhibition in vivo at 10 mg/kg [2]: 56%

O=C(CN1CCC(O)(c2ccc(Oc3ccccc3)cc2)CC1)NC1CC1c1ccccc1 (stereo not drawn) [Compound 53, N-(trans-2-phenyl-1-cyclopropyl)-4-hydroxy-4-(4-phenoxy)phenyl-1-piperidinacetamide]
Anti-veratridine effect (inhibiting rate %) [1]: 32.3% | inhibition in vivo at 10 mg/kg [2]: 74%

Cc1cccc(C)c1NC(=O)CN1CCC(O)(c2ccc(Oc3ccccc3)cc2)CC1 [Compound 55, N-(2,6-dimethylphenyl)-4-hydroxy-4-(4-phenoxy)phenyl-1-piperidinacetamide]
Anti-veratridine effect (inhibiting rate %) [1]: 28.3% | inhibition in vivo at 10 mg/kg [2]: 71.7%

O=C(CN1CCC(O)(c2ccc(Oc3ccccc3)cc2)CC1)NC1(c2ccccc2)CC1 [Compound 57, N-(1-phenyl)cyclopropyl-4-hydroxy-4-(4-phenoxy)phenyl-1-piperidinacetamide]
Anti-veratridine effect (inhibiting rate %) [1]: 40.1% | inhibition in vivo at 10 mg/kg [2]: 60%

O=C(CN1CCC(O)(c2ccc(Cc3ccc(F)cc3)cc2)CC1)NC1(c2ccccc2)CC1 [Compound 58, N-(1-phenyl)cyclopropyl-4-hydroxy-4-[4-(4-fluorophenyl)methylphenyl]-1-piperidinacetamide]
Anti-veratridine effect (inhibiting rate %) [1]: 11.3% | inhibition in vivo at 10 mg/kg [2]: 51.7%
